Laboratory results reported in US20190307771A1, “METHODS AND COMPOSITIONS FOR THE TREATMENT OF CANCER AND METABOLIC DISEASES” (THE REGENTS OF THE UNIVERSITY OF CALIFORNIA, priority 2016, published 2019).
Entries after “also recorded” stand apart in the source; their conditions may differ. Blank lines part the entries; values can stand above or below the compound they belong to.

Assays:
[1] = system: NUR77; test: ChIP-qPCR and RT-PCR: NUR77 binding to BRE and CCND2 and their mRNA; format: cell-based; details: HCT116 cells
Method: NUR77 and RARβ acetylation status was also studied because protein acetylation alters nuclear receptor activity^37. […] To study the effect of RA/butyrate in modulating NUR77 and RARβ transcriptional activity, ChIP-qPCR and RT-PCR were performed to determine receptor binding to transcriptional regulatory regions and mRNA levels of downstream targets, respectively.
(§1) Chromatin immunoprecipitation (ChIP)-qPCR ChIP-qPCR was performed as described previously^21. Briefly, chromatin lysate was precleared before incubation with an anti-H3K9AC antibody (Millipore. Billerica, Mass.), anti-HDAC1 and anti-HDAC4 (Cell signaling technology, Beverly, Mass.) or anti-SIRT1 antibody (Santa Cruz Biotechnology, Santa Cruz, Calif.). IgG (Santa Cruz Biotechnology, Santa Cruz, Calif.) and RNA Polymerase II antibody (Millipore, Billerica, Mass.) were used as negative and positive controls, respectively. Samples were incubated with Dynase beads at 4° C. overnight followed by de-crosslinking and purification. DNA fragments generated served as templates for qPCR using Power SYBR1 Green PCR Master Mix.

[2] = system: RARB and NUR77 genes; test: ChIP-qPCR: HDAC recruitment and H3K9 acetylation at RARB and NUR77 genes in HCT116 cells; format: cell-based; details: RA 10 μM, butyrate 5 mM, SAHA 5 μM
Method: Cell lysates were used for ChIP with antibodies specific for HDAC1, HDAC4, SIRT1, or acetylated H3K9, followed by qPCR using primers specific for the RARB and NUR77 genes. DMSO treated cells and IP using IgG were included as negative controls. […]inding was expressed relative to the IgG negative controls.
as §1

[3] = cited from earlier work
[4] = system: retinoic acid receptor beta (RARβ); test: RARB expression in HCT116 cells (qRT-PCR); format: cell-based; details: 24 hours, RA 10 μM, butyrate 5 mM, SAHA 5 μM
Method: (§2) Total RNA was extracted with TRIzol Reagent (Invitrogen, Carlsbad, Calif.), and cDNA was generated using High Capacity RNA-to-cDNA Kit (Applied Biosystems, Carlsbad, Calif.). qRT-PCR was performed on ABI 7900HT Fast Real time PCR system using Power SYBR® Green PCR Master Mix (Applied Biosystems, Carlsbad, Calif.).

[5] = system: Gpr41, Gpr43, Gpr109a, Pgc1α, Pepck, Fas; test: Ileal and hepatic mRNA levels in mice after oral gavage; format: in vivo, C57BL/6 mice; details: RA 15 mg/kg and/or butyrate 500 mg/kg, oral gavage every other day for one week
[6] = system: liver cancer cells (Huh7, Hep3B, HepG2); details: published studies; cited from earlier work
[7] = system: miR-22; test: miR-22 expression in HCT116 cells (qRT-PCR); format: cell-based; details: 24 hours, RA 10 μM, butyrate 5 mM, propionate 10 mM, valerate 10 mM, SAHA 5 μM
Method: To study the effect of RA and HDAC inhibitors on miR-22 expression, HCT116 cells were treated with RA, butyrate, propionate, valerate, and SAHA. The SCFA concentrations used were within physiologic ranges^35.
as §2

[8] = system: DLD-1 colon cancer cells; test: Cell viability of DLD-1 cells; details: 48 hours, RA 10 μM, butyrate 5 mM, propionate 10 mM, valerate 10 mM, SAHA 5 μM, vs. DMSO
Method: HCT116 and DLD-1 colon cancer cells were treated with dimethyl sulfoxide (DMSO) only (as a negative control), RA (10 μM), Fenretinide (10 μM), or an HDAC inhibitor. […] SCFAs were selected from butyrate (5 mM), propionate (10 mM), and valerate (10 mM). Some HCT116 and DLD-1 cells were treated separately with a combination of RA and one of the SCFAs. Cells were treated for 48 hours before viability was assessed.

[9] = system: HDAC1, HDAC4, SIRT1, cyclin A2 (CCNA2); test: Western blot of protein deacetylases and cyclin A2 in HCT116 cells; format: cell-based; details: 24 hours, RA 10 μM, butyrate 5 mM, SAHA 5 μM
[10] = system: NUR77 and RARβ; test: Induction and localization of NUR77 and RARβ in HCT116 cells; format: cell-based; details: 48 hours, RA 10 μM, butyrate 5 mM, SAHA 5 μM, EGF 32 nM
Method: Proteins were immunoprecipitated by anti-NUR77 or anti-RARβ antibodies, or IgG, followed by Western blot using anti-RARβ or anti-NUR77 antibodies.
To study the effect of miR-22 in induction of cytosolic NUR77 by RA/butyrate, adenoviral-delivery of miR-22 inhibitors tagged with green fluorescence (adeno-miR-22 inhibitor-GFP, Applied Biological Materials Inc, Richond, BC) were used to infect HCT116 cells. At 48 hours post adenoviral infection, cells were treated with RA (10 μM) plus butyrate (5 mM) or DMSO for 24 hours. […] Cells were mounted in ProLong® Gold Antifade Reagent with DAPI (4′,6-diamidino-2-phenylindole, Life Technologies, Carlsbad, Calif.) and imaged under Keyence BZ-9000 microscope.

[11] = T2DM and NAFLD patients; cited from earlier work
[12] = system: miR-22; test: miR-22 induction by bile acids, FXR agonist and vitamin D3; details: unpublished data
[13] = system: primary liver cancer; details: cited from earlier work
[14] = FXR KO mice: steatohepatitis and liver cancer; format: in vivo; details: 10 months old Western diet-fed FXR KO mice; 100 mg/liter in drinking water for three months
From the text: The treatment was started when mice were seven months old. Mice were sacrificed when they were ten months old. n>4.
FXR KO mice have increased insulin resistance accompanied by elevated BAs with increased DCA and develop liver cancer when they are about 15 months old (FIG. 24). […] In addition, FXR KO mice also had reduced Erysipelotrichaceae and Coriobacteriaceae, which have many beneficial health effects (FIG. 25A). Consistently, FXR KO mice had reduced bcoA, which generates butyrate, and increased baiJ and dsrA that generate DCA and hydrogen sulfide, respectively (FIG. 25B). Moreover, 10 months old Western diet-fed FXR KO mice developed severe steatohepatitis with massive hepatic lymphocyte infiltration, which could be eliminated by polymyxin B. This exciting finding clearly indicated the role of Gram-negative bacteria in contributing to hepatic inflammation (FIG. 26). […] Because it takes about 10-15 months for FXR KO mice to develop liver cancer, we will introduce Met/β-catenin plasmids by using sleep beauty transposon system into FXR KO mice via hydrodynamic tail vein injection to induce liver cancer. In wild type mice, these plasmids, which have been provided by Dr. Xin Chen at UCSF, can induce liver cancer within a month post-injection. In the presence of dysbiosis and dysregulated BAs, liver cancer formation is expected to be facilitated and may occur even earlier. […]

[15] = FXR KO mice, depletion of BAs; cited from earlier work

NUR77 binding to BRE and CCND2 promoter regions and their mRNA levels (NUR77 transcriptional activity) [1]: not RA alone
Compound: CC1=C(/C=C/C(C)=C/C=C/C(C)=C/C(=O)O)C(C)(C)CCC1 [RA, all-trans retinoic acid]
Recruitment of HDAC4 and SIRT1 to the RARB gene (ChIP-qPCR) [2]: not | Microbiota phenotype, metabolism and liver regeneration ([3]; RA prior to liver resection): lean microbiota phenotype, improved metabolism as well as accelerated liver regeneration | Ratio of Firmicutes to Bacteroidetes ([3]; one day after liver resection): reduced ratio of Firmicutes to Bacteroidetes | RARB (RARβ) expression / transcription [4]: upregulated | Expression of Gpr41 and Gpr43 [5]: could induce the expression | Apoptosis of liver cancer cells [6]: not as effective as fenretinide in inducing apoptosis | miR-22 expression level [7]: upregulated; also recorded: induced miR-22 expression; also recorded: could induce miR-22; also recorded: increased miR-22 level | Cell viability [8]: reduced cell viability | Protein levels of HDAC1, HDAC4, SIRT1, and cyclin A2 (CCNA2) [9]: reduced HDAC1, HDAC4, SIRT1, and CCNA2 protein levels | Induction and localization of NUR77 and RARβ (immunostaining) [10]: modestly induced both receptors in the nucleus

Compound: CC[C@H]1[C@@H](O)[C@@H]2[C@H](CC[C@]3(C)[C@@H]([C@H](C)CCC(=O)O)CC[C@@H]23)[C@@]2(C)CC[C@@H](O)C[C@@H]12 [obetacholic acid]
Insulin sensitivity, liver inflammation and fibrosis [11]: improves insulin sensitivity and reduces liver inflammation as well as fibrosis | miR-22 induction [12]: effective in inducing miR-22

Compound: CNC(=O)c1cc(Oc2ccc(NC(=O)Nc3ccc(Cl)c(C(F)(F)F)c3)cc2)ccn1 [sorafenib]
Increase of survival [13]: 6 months

Compound: polymyxin B
Severe steatohepatitis with massive hepatic lymphocyte infiltration [14]: eliminated

Compound: cholestyramine
Liver cancer formation [15]: prevented liver cancer formation
